# Where two headings read alike, the source gives them in different places.
# Experiments:
# [1] = test system: Panzytrat® 40,000 (pancreatin)
# Protocol: (§1) For the cleavage experiments under near-body conditions two media are investigated: • FaSSGF, which simulates the stomach • FaSSIF, which simulates the intestinal tract
# (§2) In addition, in some experiments porcine pancreas is added (Panzytrat® 40,000, Fa. Allergan).
# (§3) Cleavage with Gastric Medium: FaSSGF Medium • A so-called FaSSGF medium is prepared according to the manufacturer's specifications from the commercially available corresponding composition (available from Biorelevant, Ltd., Great Britain). • The resulting sample is divided into two batches of equal size. 10 wt.-% of the ternary glyceride mixture based on mono-, di- and triglycerides of 3-hydroxybutyric acid, as described hereinabove, is dissolved in each FaSSGF medium and left in a water bath at 35° C. for 24 hours.
# [2] = test system: Panzytrat® 40,000 (pancreatin); remark: listed apart in the source
# Protocol: as §1
# (§4) Both media are from the company Biorelevant®, Ltd. in Great Britain. In addition, in some experiments porcine pancreas is added (Panzytrat® 40,000, Fa. Allergan).
# (§5) Cleavage with Bowl Medium: FaSSIF Medium • The FaSSIF medium is prepared according to the manufacturer's instructions (Fa. Biorelevant, Ltd., Great Britain). • The sample obtained is divided into two equally sized preparations. 10 wt.-% of the aforementioned glyceride mixture based on a mixture of mono-, di- and triglycerides of 3-hydroxybutyric acids is dissolved in each FaSSIF medium and left in a water bath at 35° C. for 24 hours.
# [3] = test system: porcine pancreatic lipase type II (PPL type II)
# Protocol: (§6) Further Cleavage with Bowl Medium: FaSSIF Medium • The FaSSIF medium is prepared according to the previous test according to the manufacturer's instructions. • The resulting sample is divided into two batches of equal size. 10 wt.-% of the ternary glyceride mixture of mono-, di- and triglycerides of 3-hydroxybutyric acids according to the invention is dissolved in each FaSSIF medium and left in a water bath at 35° C. for 24 hours.
# [4] = test system: pancreatin (Panzytrat® 40,000); experiment: Cleavage experiments with pancreatin in water, acid number over time; format: in vitro ADME, porcine; conditions: test repeated on individual glycerides, 50° C.
# [5] = test system: porcine pancreatic lipase type II (PPL type II); experiment: Cleavage experiments with and without porcine pancreatic lipase in FaSSIF medium; conditions: for with enzyme, 24 h, 35° C. / without enzyme 24 h, 35° C. / before splitting 0 h: the 14th table; for with enzyme, 24 h, 35° C.: FaSSIF medium pH 6.5, 1 wt.-% porcine pancreatic lipase type II; for without enzyme 24 h, 35° C.: FaSSIF medium pH 6.5, without enzyme; for before splitting 0 h: FaSSIF medium
# Protocol: as §6
# [6] = test system: Panzytrat® 40,000 (pancreatin); experiment: Cleavage experiments with and without Panzytrat 40,000 in FaSSGF medium (simulates the stomach, pH 1.6); conditions: for change of content in FaSSGF medium: pH 1.6, 35° C., 24 hours, both with and without pancreatin; for share in chromatogram, FaSSGF m.P. 24 h, 35° C. / share in chromatogram, FaSSGF o.P. 24 h, 35° C. / share in chromatogram, before splitting: the 11th table; for share in chromatogram, FaSSGF m.P. 24 h, 35° C. / share in chromatogram, FaSSGF o.P. 24 h, 35° C.: FaSSGF (stomach, pH = 1.6); for share in chromatogram, FaSSGF m.P. 24 h, 35° C.: with Panzytrat; for share in chromatogram, FaSSGF o.P. 24 h, 35° C.: without Panzytrat; for share in chromatogram, before splitting: starting mixture (crude high-boiling fraction) before splitting; for before splitting: the 12th table, FaSSGF medium
# Protocol: as §1, §2, §3
# [7] = test system: Panzytrat® 40,000 (pancreatin); experiment: Cleavage experiments with and without Panzytrat 40,000 in FaSSIF medium (simulates the intestinal tract, pH 6.5); conditions: for share in chromatogram, FaSSIF 0 h, Start / share in chromatogram, FaSSIF m.P. 24 h, 35° C. / share in chromatogram, FaSSIF o.P. 24 h, 35° C.: the 11th table, FaSSIF (bowel, pH = 6.5); for share in chromatogram, FaSSIF m.P. 24 h, 35° C.: with Panzytrat; for share in chromatogram, FaSSIF o.P. 24 h, 35° C.: without Panzytrat; for with Panzytrat 24 h, 35° C. / without Panzytrat 24 h, 35° C. / before splitting 0 h: the 13th table, in %; for with Panzytrat 24 h, 35° C.: FaSSIF medium pH 6.5, 1 wt.-% Panzytrat 40,000, 24 h; for without Panzytrat 24 h, 35° C.: FaSSIF medium pH 6.5, without Panzytrat; for before splitting 0 h: FaSSIF medium; for change of content in FaSSIF medium: pH 6.5, 35° C., 24 hours, with and without pancreatin
# Protocol: as §1, §4, §5
# [8] = even if several grams are taken; acid and its salts; cited from earlier work
before splitting ([1]; 0 h),"share in chromatogram, before splitting ([1]; 0 h, 10 wt.-%, pH 1.6)","share in chromatogram, FaSSGF o.P. 24 h, 35° C. ([1]; 24 h, 10 wt.-%, pH 1.6)","share in chromatogram, FaSSGF m.P. 24 h, 35° C. ([1]; pig, 24 h, 10 wt.-%, pH 1.6)","before splitting 0 h ([3]; 0 h, 10 wt.-%, pH 6.5)","without enzyme 24 h, 35° C. ([3]; 24 h, 10 wt.-%, pH 6.5)",SMILES,cleavage of the individual glycerides by pancreatin [4],"with enzyme, 24 h, 35° C. [5]","without enzyme 24 h, 35° C. [5]",before splitting 0 h [5],"share in chromatogram, FaSSGF m.P. 24 h, 35° C. [6]","share in chromatogram, FaSSGF o.P. 24 h, 35° C. [6]","share in chromatogram, before splitting [6]",before splitting [6],"share in chromatogram, FaSSIF 0 h, Start [7]","share in chromatogram, FaSSIF m.P. 24 h, 35° C. [7]","share in chromatogram, FaSSIF o.P. 24 h, 35° C. [7]","with Panzytrat 24 h, 35° C. [7]","without Panzytrat 24 h, 35° C. [7]",before splitting 0 h [7],also measured
,,,,,,"CC(O)CC(=O)OC(C)CC(=O)O (centres unmarked) [3-BHB dimer, dimer of 3-hydroxybutyrate]",,,,,,,,,,,,,,,"before splitting [1]: 0.71 % area; share in chromatogram, FaSSGF m.P. 24 h, 35° C. [1]: 0.45 % area; share in chromatogram, FaSSGF o.P. 24 h, 35° C. [1]: 0.35 % area; share in chromatogram, before splitting [1]: 0.71 % area; before splitting 0 h [2]: 0.70; share in chromatogram, FaSSIF 0 h, Start [2]: 0.70 % area; share in chromatogram, FaSSIF m.P. 24 h, 35° C. [2]: 0.72 % area; share in chromatogram, FaSSIF o.P. 24 h, 35° C. [2]: 0.72 % area; with Panzytrat 24 h, 35° C. ([2]; pH 6.5): 0.72; without Panzytrat 24 h, 35° C. ([2]; pH 6.5): 0.72; before splitting 0 h [3]: 0.7%; with enzyme, 24 h, 35° C. ([3]; pH 6.5): 0.71%; without enzyme 24 h, 35° C. ([3]; pH 6.5): 0.72%"
,,,,,,"CC(O)CC(=O)OCC(CO)OC(=O)CC(C)O (centres unmarked) [3-BHB-DG, diglyceride of 3-hydroxybutyric acid]",cleaved by pancreatin to the free 3-hydroxybutyric acid,59.84,60.93,60.17,44.09 % area,37.01 % area,55.85 % area,55.85 % area,60.17 % area,61.38 % area,60.93 % area,61.38,60.93,60.17,change of content in FaSSGF medium [6]: significant decrease
0.43 % area,0.43 % area,26.21 % area,18.85 % area,0.04%,0.02%,"CC(O)CC(=O)O (centres unmarked) [3-BHB-FS, 3-hydroxybutyric acid]",,,,,,,,,0.04 % area,2.60 % area,0.02 % area,2.60,0.02,0.04,"change of content in FaSSGF medium ([1]; pH 1.6): strong increase; change of content in FaSSIF medium with porcine pancreatic lipase ([3]; pH 6.5): slight increase; with enzyme, 24 h, 35° C. ([3]; pig, 24 h, 10 wt.-%, pH 6.5): 1.79%; duration of ketosis [8]: about three to four; conversion or cleavage, free acid formed ([7]; FaSSIF conditions using Panzytrat): 2.6%; change of content in FaSSIF medium [7]: slight increase"
,,,,,,"CC(O)CC(=O)OCC(O)CO (centres unmarked) [3-BHB-MG, monoglyceride of 3-hydroxybutyric acid]",cleaved by pancreatin to the free 3-hydroxybutyric acid,15.98,12.26,13.52,18.41 % area,21.09 % area,18.28 % area,18.28 % area,13.52 % area,14.34 % area,12.26 % area,14.34,12.26,13.52,
,,,,,,"CC(O)CC(=O)OCC(COC(=O)CC(C)O)OC(=O)CC(C)O (centres unmarked) [3-BHB-TG, triglyceride of 3-hydroxybutyric acid]",cleaved by pancreatin to the free 3-hydroxybutyric acid,13.38,16.79,16.40,10.12 % area,7.55 % area,16.08 % area,16.08 % area,16.40 % area,12.83 % area,16.79 % area,12.83,16.79,16.40,"change of content in FaSSIF medium with porcine pancreatic lipase ([5]; FaSSIF, pH 6.5, 35° C., 24 hours, 1 wt.-% PPL type II): slight decrease; change of content in FaSSGF medium [6]: significant decrease; change of content in FaSSIF medium [7]: slight decrease"
,,,,,,"CC(O)CC(=O)OC(C)CC(=O)OCC(CO)OC(=O)CC(C)O (centres unmarked) [3-BHB-dimer-DG, diglyceride of the dimer of 3-hydroxybutyric acid]",,7.07,7.61,7.56,4.22 % area,3.14 % area,6.62 % area,6.62 % area,7.56 % area,7.02 % area,7.61 % area,7.02,7.61,7.56,
,,,,,,"CC(O)CC(=O)OC(C)CC(=O)O (centres unmarked) [3-BHB-dimer-FS, dimer of 3-hydroxybutyric acid]",,0.17,0.00,0.00,2.51 % area,3.25 % area,,,,0.17 % area,,0.17,0.00,0.00,
,,,,,,"CC(O)CC(=O)OC(C)CC(=O)OCC(O)CO (centres unmarked) [3-BHB-dimer-MG, monoglyceride of the dimer of 3-hydroxybutyric acid]",,0.16,0.44,0.42,0.22 % area,0.16 % area,0.39 % area,0.39 % area,0.42 % area,,0.44 % area,0.00,0.44,0.42,
0.31 % area,0.31 % area,0.07 % area,0.11 % area,0.16%,0.18%,"CCOC(=O)CC(C)O (centres unmarked) [3-BHB-ethyl, 3-hydroxybutyric acid ethyl ester]",,,,,,,,,0.16 % area,0.20 % area,0.18 % area,0.20,0.18,0.16,"with enzyme, 24 h, 35° C. ([3]; pig, 24 h, 10 wt.-%, pH 6.5): 0.12%"
0.38 % area,0.38 % area,0.81 % area,0.51 % area,0.07%,0.05%,OCC(O)CO [glycerol],,,,,,,,,0.07 % area,0.07 % area,0.05 % area,0.07,0.05,0.07,"with enzyme, 24 h, 35° C. ([3]; pig, 24 h, 10 wt.-%, pH 6.5): 0.08%"
